In patent US20050261319A1, “Novel 2-amino-4-quinazolinones and 2-amino-4-oxoquinazolones as LXR nuclear receptor binding compounds with partial agonistic properties” (priority 2002, published 2005):
Blank lines part the entries; values can stand above or below the molecule they belong to.

Assays:
[1] = molecular target: T1, human LXRalpha LBD (Homo sapiens, UniProt Q13133, A196R); experiment: In vitro screening for LXR binding to coactivator Tif2 (LANCE TR-FRET); type: biochemical
T1 construct: from amino acids 155 of hLXRalpha to 447; made in house; host or cells: SF9 insect cells (baculovirus) for LXRalpha LBD; E. coli BL21 for Tif2 fragment
T1 sequence (Q13133 155-447 A196R): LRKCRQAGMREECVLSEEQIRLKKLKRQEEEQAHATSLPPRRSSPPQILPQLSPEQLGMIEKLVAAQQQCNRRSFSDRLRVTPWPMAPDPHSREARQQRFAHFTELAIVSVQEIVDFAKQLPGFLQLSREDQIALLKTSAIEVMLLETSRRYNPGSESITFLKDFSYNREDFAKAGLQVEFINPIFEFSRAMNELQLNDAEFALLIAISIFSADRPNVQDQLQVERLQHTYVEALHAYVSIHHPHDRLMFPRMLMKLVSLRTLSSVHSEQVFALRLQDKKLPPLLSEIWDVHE
T1 sequence (Q15596 548-878 partner limits assumed): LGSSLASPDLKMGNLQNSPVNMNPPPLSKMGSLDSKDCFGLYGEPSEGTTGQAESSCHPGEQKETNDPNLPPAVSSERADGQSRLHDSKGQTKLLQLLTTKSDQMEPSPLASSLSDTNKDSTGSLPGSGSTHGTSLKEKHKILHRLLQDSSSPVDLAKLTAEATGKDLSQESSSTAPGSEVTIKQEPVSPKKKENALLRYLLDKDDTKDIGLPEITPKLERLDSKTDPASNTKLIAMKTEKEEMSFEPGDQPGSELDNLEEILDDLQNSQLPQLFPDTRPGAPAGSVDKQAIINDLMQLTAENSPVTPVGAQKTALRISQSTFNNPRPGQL
Excerpt: For screening purposes a GST and 6× His fusion of the LBD (from amino acids 155 of hLXRalpha to 447) of human LXRalpha was constructed by first cloning a Gateway cassette (Invitrogen) in frame into the Sma I site of the pAGGHLT Polylinker (Pharmingen). Then a PCR fragment specifically amplified from human liver cDNA was cloned into the resulting pACGHLT-GW following the manufacturers instructions for Gateway cloning (Invitrogen) to yield pACGHLT-GW-hLXRalphaLBD.
100% sequence integrity of all recombinant products was verified by sequencing. Recombinant Baculovirus was constructed from pACGHLT-GW-hLXRalphaLBD using the Pharmingen Baculovirus Expression vector system according to instructions of the manufacturer. Monolayer cultures of SF9 cells were infected by the virus as recommended by Pharmingen or 200 ml cultures of 1×10^6 cells/ml grown in 2 liter Erlenmeyer flasks on an orbital shaker at 30 rpm were infected by 10 ml of same virus stock. In both cases cells were harvested 3 days after infection. All cell growth was performed in Gibco SF900 II with Glutamine (Invitrogen) medium without serum supplementation at 28° C. Since SF9 cells contain significant amounts of endogenous 30 GST, purification was performed via His and not via GST affinity chromatography.
To this end instructions of Pharmingen for purification of recombinant His tagged proteins from SF9 cells were followed with the following modifications: All detergents were omitted from the buffers and cells were lysed on ice by 5 subsequent sonication pulses using a sonicator needle at maximum power.
All eluates were dialyzed against 20 mM Tris/HCl pH 6.8, 300 mM KCl; 5 mM MgCl2;1 mM DTT; 0.2 mM PMSF; 10% Glycerol. A typical dialyzed eluate fraction contained the fusion protein at a purity of more than 80%. Total protein concentration was 0.1-0.3 mg/ml.
For E. coli expression of a NR coactivator, pDest17-hTif2BD expressing an NR interaction domain from amino acids 548-878 of human Tif2 (Acc. No: XM011633 Ref Seq) tagged by 6 N-terminal His residues was constructed. Therefore, a PCR fragment specifically amplified from human liver cDNA was subcloned into pDest 17 (Invitrogen) following the manufacturers instructions for Gateway cloning (Invitrogen). Primers used for Amplification were: […]
For E. coli expression plasmid DNA was transformed into chemically competent E. coli BL21 (Invitrogen, USA) and cells were grown to an OD600 of 0.4-0.7 before expression was induced by addition of 0.5 mM IPTG according instructions of the manufacturer (Invitrogen). After induction for 8 hours at 30° C. cells were harvested by centrifugation for 10 minutes at 5000×g. Fusion proteins were affinity purified using Ni—NTA Agarose (QIAGEN) according to the instructions of the manufacturer.
Recombinant Tif2 construct was dialyzed against 20 mM Tris/HCL pH 7.9; 60 mM KCl; 5 mM MgCl2; 1 mM DTT, 0.2 mM PMSF; 10% glycerol. A typical dialyzed eluate fraction contained the fusion protein at a purity of more than 80%. Total protein concentration was 0.1-0.3 mg/ml.
The TIF2 fragment was subsequently biotinylated by addition of 5-40 ul/ml Tif2 fraction of a Biotinamidocaproate N-Hydroxysuccinimide-ester (Sigma) solution (20 mg/ml in DMSO). Overhead rotating samples were incubated for 2 hours at room temperature. Unincorporated label was then separated using G25 Gel filtration chromatography (Pharmacia Biotech, Sweden). Protein containing fractions from the column were pooled and tested for activity in the assay as described below.
For screening of compound libraries as provided for by the methods shown below in the examples for substances which influence the LXR/Tif 2 interaction, the PerkinElmer LANCE technology is applied. This method relies on the binding dependent energy transfer from a donor to an acceptor fluorophore attached to the binding partners of interest. […]

[2] = test system: HepG2 liver cells; experiment: Triglyceride assay in HepG2 cells; type: cell-based; conditions: 24 h, 25 pM
Method: Methods: Cultures of the monocyte-macrophage cell line and the hepatocytes HepG2 are obtained from the American Type tissue Culture Collection, Rockville, Md. and were grown in RPMI 1640 medium supplemented with 10% fetal bovine serum, 10 mM HEPES, 2 mM pyruvate, 50 uM (3-Mercaptoethanol (THP-1) and Minimum essential medium (Eagle) with 2 mM L-glutamine and Earle's BSS supplemented with 10% fetal bovine serum, 2 mM glutamin, 0.1 mM non-essential amino acids, 1 mM sodium pyruvate (HepG2), respectively, at 37° C. in 5% CO2.
For cholesterol efflux measurements and triglyceride analysis cells are seeded in 6 well plates at 1.8×10^6 cells (THP-1) and 1×10^6 cells (HepG2) per well, respectively.
TRIGLYCERIDE ASSAY HepG2 cells are seeded in poly-L-Lysine coated 6 well plates at 1×10^6 cells per well in EMEM medium containing 10% FCS until they were appr. 60% confluent. Before treatment with LXR compounds growth medium is changed to medium containing 10% charcoal/dextran-stripped FCS for 12 h. Treatment is done for 24 h in medium containing 10% charcoal/dextran-stripped FCS. Cells are washed twice with ice-cold PBS/0.2% BSA and twice with cold PBS and all liquid carefully removed. Triglyceride are extracted with 1.5 ml hexane/isopropanol=3: 2 per well with gentle shaking for 2-3 h at RT according to Pan et al. (2002) JBC277, 4413-4421 and Goti et al. (1998) Biochem J, 332, 57-65. The extraction solution is collected, dried under vacuum and redissolved in isopropanol/1.5% triton. The remaining cellular proteins are lysed with 0.3 N NaOH and protein content measured with the Biorad Bradford reagent.
Triglyceride levels are measured as esterified glycerol using a commercial enzymatic colorimetric kit (Sigma 343-25P). In a preliminary assay it is checked by omitting the lipase enzyme that contribution of free glycerol is negligible.

[3] = molecular target: T2, Gal4DBD-LXRb (Homo sapiens, UniProt P55055); experiment: pFR-luc reporter transactivation in CHO cells, Gal4DBD-LXRb; type: cell-based; conditions: 16 h, 0.032 to 50 uM
T2 construct: expressed in transfected cells; host or cells: CHO
T2 sequence (P55055 222-460 limits assumed): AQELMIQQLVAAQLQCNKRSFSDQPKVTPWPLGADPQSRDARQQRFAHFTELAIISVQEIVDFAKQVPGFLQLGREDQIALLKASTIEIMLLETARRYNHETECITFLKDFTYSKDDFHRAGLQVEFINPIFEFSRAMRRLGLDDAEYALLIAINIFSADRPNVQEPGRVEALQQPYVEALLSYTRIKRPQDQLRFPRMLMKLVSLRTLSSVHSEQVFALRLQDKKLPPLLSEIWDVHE
Method: (§1) CHO cells (1×10^5 cells 96 well plate) were co-transfected (Lipofectamine 2000 GIBCO) with pFR-luc (Stratagene) as a reporter gene construct and pCMV-AD derivatives containing the LXRa or LXRb ligand binding domains, which were cloned via the gateway system (GIBCO) described in Example 1, in order to express Gal4DBD-LXRa or Gal4DBD-LXRb fusion proteins.
(§2) Cells were grown in DMEM containing 10% FCS at 37° C. in 5% humidified CO2 for 16 h in presence of 0.05% DMSO vehicle or 0.032 to 50 uM LN0000006500 in vehicle (as indicated in FIG. 9). Luciferase activity was determined from aliquots of extracts prepared from cells following standard luciferase assay kits and protocols from Promega.

[4] = test system: THP-1 macrophages; experiment: Cholesterol efflux from differentiated THP-1 macrophages; type: cell-based; conditions: ApoA1, 10 uM, 24 h
Method: Methods: Cultures of the monocyte-macrophage cell line and the hepatocytes HepG2 are obtained from the American Type tissue Culture Collection, Rockville, Md. and were grown in RPMI 1640 medium supplemented with 10% fetal bovine serum, 10 mM HEPES, 2 mM pyruvate, 50 uM (3-Mercaptoethanol (THP-1) and Minimum essential medium (Eagle) with 2 mM L-glutamine and Earle's BSS supplemented with 10% fetal bovine serum, 2 mM glutamin, 0.1 mM non-essential amino acids, 1 mM sodium pyruvate (HepG2), respectively, at 37° C. in 5% CO2. THP-1 cells are differentiated into macrophages by addition of 100 nM Phorbol 12-Myristate 13-Acetate (PMA; Sigma P8139) and PMA included in the medium of all subsequent experiments to maintain differentiation. For cholesterol efflux measurements and triglyceride analysis cells are seeded in 6 well plates at 1.8×10^6 cells (THP-1) and 1×10^6 cells (HepG2) per well, respectively. CHOLESTEROL EFFLUX THP-1 cells are seeded in 6 well plates at 1×10^6 cells per well in RPMI 1640 medium containing 10% FCS and 100 nM TPA for 72 h. After washing with PBS cells are incubated 24 h with fresh in RPMI 1640 medium containing 10% FCS and 100 nM TPA. […] Medium is collected, centrifuged to remove cell debris and assayed for cholesterol using a commercial fluorometric kit (Molecular Probes A-12216). The remaining cellular proteins are lysed with 0.3 NNaOH and protein content measured with the Biorad Bradford reagent. THP-1 (1×10^6 cells per dish) cells were seeded in 6 well dishes in 3 ml modified RPMI 1640 medium (ATTC, Cat. […] After incubation for 24 hours, total cholesterol was determined from cell supernatant in each of the wells using an enzymatic assay with fluorescence read-out for the determination of cholesterol (Amplex Red Cholesterol Assay Kit (A-12213). The fluorescence readout per mg of total protein content as determined from cells that were present in the respective well are shown in FIGS. 9 or 11 as an example.

[5] = molecular target: T3, Gal4DBD-LXRa (Homo sapiens, UniProt Q13133); experiment: pFR-luc reporter transactivation in CHO cells, Gal4DBD-LXRa; type: cell-based; conditions: 16 h, 0.032 to 50 uM
T3 construct: expressed in transfected cells; host or cells: CHO
T3 sequence (Q13133 209-447 limits assumed): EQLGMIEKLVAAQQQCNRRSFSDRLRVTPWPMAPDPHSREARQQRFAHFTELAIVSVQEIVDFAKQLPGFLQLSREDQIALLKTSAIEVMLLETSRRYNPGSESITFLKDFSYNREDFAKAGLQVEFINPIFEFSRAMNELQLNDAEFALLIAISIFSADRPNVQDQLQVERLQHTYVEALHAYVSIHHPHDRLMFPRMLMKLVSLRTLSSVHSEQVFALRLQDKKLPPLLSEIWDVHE
Method: as §1, §2

active as agonist / partial agonist of the LXR human nuclear receptor [1]: active as agonist
SMILES: CC(C)n1c(N2CC3(C)CC2CC(C)(C)C3)nc2ccc(Br)cc2c1=O (stereo not drawn) [formula (6)]

EC50 ([1]; FRET assay, read-out: EC50 at LXR (half-maximal effective concentration)): 500 nM
SMILES: C=CCn1c(N2CC3(C)CC2CC(C)(C)C3)nc2ccccc2c1=O (stereo not drawn) [formula (4)]

transactivation of the pFR-luc reporter gene via Gal4 LBD-fusion construct derived from LXRb [3]: can selectively enhance transcription | transactivation of the pFR-luc reporter gene via Gal4 LBD-fusion construct derived from LXRa [5]: can selectively enhance transcription
SMILES: O=S(=O)(c1ccccc1)N(CC(F)(F)F)c1ccc(C(O)(C(F)(F)F)C(F)(F)F)cc1 [T0901317, reference compound]
triglyceride mass [2]: marked increase | cholesterol export [4]: marked increase
